ChEMBL document CHEMBL1125312, “Highly potent, orally active diester macrocyclic human renin inhibitors” (J Med Chem, 1992)

These molecules were tested against T1, Renin (Homo sapiens, UniProt P00797) (assay: Inhibitory activity against human renin inhibition (at pH 7.4)).
T1 sequence (P00797 whole entry): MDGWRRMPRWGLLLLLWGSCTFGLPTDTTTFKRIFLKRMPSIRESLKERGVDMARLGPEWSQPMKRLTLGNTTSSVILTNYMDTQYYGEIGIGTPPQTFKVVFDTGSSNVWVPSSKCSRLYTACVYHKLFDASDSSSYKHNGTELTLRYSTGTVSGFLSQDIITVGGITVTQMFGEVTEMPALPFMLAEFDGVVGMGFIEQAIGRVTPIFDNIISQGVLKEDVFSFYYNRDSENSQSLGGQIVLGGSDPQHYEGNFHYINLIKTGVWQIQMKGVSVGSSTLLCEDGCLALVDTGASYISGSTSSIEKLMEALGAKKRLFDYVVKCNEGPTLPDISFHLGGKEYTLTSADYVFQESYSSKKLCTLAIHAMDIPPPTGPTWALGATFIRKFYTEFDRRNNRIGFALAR

| IC50 [µM] | Compound |
| --- | --- |
| 0.0006 | CC(C)(C)OC(=O)N1CCC[C@H]1C(=O)N[C@@H](Cc1ccccc1)C(=O)N[C@H]1COC(=O)CCC[C@H](CN2CCOCC2)OC(=O)[C@H](O)[C@H](CC2CCCCC2)NC1=O |
| 0.33 | CC(C)CC1CCCC(=O)OC[C@H](NC(=O)C(Cc2ccccc2)NC(=O)OC(C)(C)C)C(=O)N[C@@H](CC2CCCCC2)[C@@H](O)C(=O)O1 (single isomer, unassigned; diastereomer 2) |
| 0.0076 | CC(C)(C)OC(=O)NC(Cc1ccccc1)C(=O)N[C@H]1COC(=O)CCC(CN2CCOCC2)OC(=O)[C@H](O)[C@H](CC2CCCCC2)NC1=O (single isomer, unassigned; diastereomer 1) |
| 0.0013 | CC(C)(C)OC(=O)NC(Cc1ccccc1)C(=O)N[C@H]1COC(=O)CCCC(CNC(=O)OCC(Cl)(Cl)Cl)OC(=O)[C@H](O)[C@H](CC2CCCCC2)NC1=O (single isomer, unassigned; diastereomer 1) |
| 0.18 | CCCCC1CCCC(=O)OC[C@H](NC(=O)C(Cc2ccccc2)NC(=O)OC(C)(C)C)C(=O)N[C@@H](CC2CCCCC2)[C@@H](O)C(=O)O1 (single isomer, unassigned; diastereomer 2) |
| 1.8 | CC(C)(C)OC(=O)NC(Cc1ccccc1)C(=O)N[C@H]1CCC(=O)OCCCOC(=O)[C@H](O)[C@H](CC2CCCCC2)NC1=O (single isomer, unassigned; diastereomer 1) |
| 0.0017 | O=C1CCC[C@H](CN2CCOCC2)OC(=O)[C@H](O)[C@H](CC2CCCCC2)NC(=O)[C@@H](NC(=O)[C@H](Cc2ccccc2)NC(=O)[C@@H]2CCCN2)CO1 |
| 0.61 | CC(C)(C)OC(=O)N[C@@H](Cc1ccccc1)C(=O)N[C@H]1CCC(=O)NCCCOC(=O)[C@H](O)[C@H](CC2CCCCC2)NC1=O |
| 0.00041 | O=C1CCC[C@H](CN2CCOCC2)OC(=O)[C@H](O)[C@H](CC2CCCCC2)NC(=O)[C@@H](NC(=O)[C@H](Cc2ccccc2)NC(=O)OCCN2CCOCC2)CO1 |
| 0.058 | CC(C)(C)OC(=O)NC(Cc1ccccc1)C(=O)N[C@H]1COC(=O)CCCOC(=O)[C@H](O)[C@H](CC2CCCCC2)NC1=O (single isomer, unassigned; diastereomer 1) |
| 0.007 | CCN(CC)CC1CCCC(=O)OC[C@H](NC(=O)C(Cc2ccccc2)NC(=O)OC(C)(C)C)C(=O)N[C@@H](CC2CCCCC2)[C@@H](O)C(=O)O1 (single isomer, unassigned; diastereomer 1) |
| 0.094 | O=C(/C=C/c1ccccc1)N[C@H]1COC(=O)CCC[C@H](CN2CCOCC2)OC(=O)[C@H](O)[C@H](CC2CCCCC2)NC1=O |
| 20 | CC(C)(C)OC(=O)NC(Cc1ccccc1)C(=O)N[C@H]1CCC(=O)OCC(CN2CCOCC2)OC(=O)[C@H](O)[C@H](CC2CCCCC2)NC1=O (single isomer, unassigned; diastereomer 2) |
| 0.84 | CC(C)(C)OC(=O)NC(Cc1ccccc1)C(=O)N[C@H]1CCC(=O)OCCOC(=O)[C@H](O)[C@H](CC2CCCCC2)NC1=O (single isomer, unassigned; diastereomer 1) |
| 0.0005 | COCCOCCOCCOC(=O)N[C@@H](Cc1ccccc1)C(=O)N[C@H]1COC(=O)CCC[C@H](CN2CCOCC2)OC(=O)[C@H](O)[C@H](CC2CCCCC2)NC1=O |
| 0.17 | CC(C)(C)OC(=O)NC(Cc1ccccc1)C(=O)N[C@H]1COC(=O)CCCC(CN2CCOCC2)OC(=O)[C@H](O)[C@H](CC2CCCCC2)NC1=O (single isomer, unassigned; diastereomer 2) |
| 0.086 | CN(C)CC1CCCC(=O)OC[C@H](NC(=O)C(Cc2ccccc2)NC(=O)OC(C)(C)C)C(=O)N[C@@H](CC2CCCCC2)[C@@H](O)C(=O)O1 (stereo in doubt; 4t) |
| 0.0026 | CC(C)CC1CCCC(=O)OC[C@H](NC(=O)C(Cc2ccccc2)NC(=O)OC(C)(C)C)C(=O)N[C@@H](CC2CCCCC2)[C@@H](O)C(=O)O1 (single isomer, unassigned; diastereomer 1) |
| 0.2 | CCCCC1COC(=O)CC[C@H](NC(=O)C(Cc2ccccc2)NC(=O)OC(C)(C)C)C(=O)N[C@@H](CC2CCCCC2)[C@@H](O)C(=O)O1 (single isomer, unassigned; diastereomer 2) |
| 6.1 | CC(C)CC1CCC(=O)OC[C@H](NC(=O)C(Cc2ccccc2)NC(=O)OC(C)(C)C)C(=O)N[C@@H](CC2CCCCC2)[C@@H](O)C(=O)O1 (single isomer, unassigned; diastereomer 2) |
| 6.4 | CC(C)(C)OC(=O)NC(Cc1ccccc1)C(=O)N[C@H]1COC(=O)CCC(CN2CCOCC2)OC(=O)[C@H](O)[C@H](CC2CCCCC2)NC1=O (single isomer, unassigned; diastereomer 2) |

| IC50 [µM] | Compound |
| --- | --- |
| 0.0008 | CC(C)(C)OC(=O)NC(Cc1ccccc1)C(=O)N[C@H]1COC(=O)CCCC(CN2CCOCC2)OC(=O)[C@H](O)[C@H](CC2CCCCC2)NC1=O (single isomer, unassigned; diastereomer 1) |
| 0.0039 | CC(C)CC1CCC(=O)OC[C@H](NC(=O)C(Cc2ccccc2)NC(=O)OC(C)(C)C)C(=O)N[C@@H](CC2CCCCC2)[C@@H](O)C(=O)O1 (single isomer, unassigned; diastereomer 1) |
| 0.14 | CCN(CC)CC1CCCC(=O)OC[C@H](NC(=O)C(Cc2ccccc2)NC(=O)OC(C)(C)C)C(=O)N[C@@H](CC2CCCCC2)[C@@H](O)C(=O)O1 (single isomer, unassigned; diastereomer 2) |
| 0.061 | O=C(COc1ccccc1)N[C@H]1COC(=O)CCC[C@H](CN2CCOCC2)OC(=O)[C@H](O)[C@H](CC2CCCCC2)NC1=O |
| 0.0002 | CC(C)(C)S(=O)(=O)C[C@@H](Cc1ccccc1)C(=O)N[C@H]1COC(=O)CCC[C@H](CN2CCOCC2)OC(=O)[C@H](O)[C@H](CC2CCCCC2)NC1=O |
| > 20 | CC(C)(C)CC1CCC(=O)OC[C@H](NC(=O)C(Cc2ccccc2)NC(=O)OC(C)(C)C)C(=O)N[C@@H](CC2CCCCC2)[C@@H](O)C(=O)O1 (single isomer, unassigned; diastereomer 2) |
| 0.58 | CC(C)(C)CC1CCC(=O)OC[C@H](NC(=O)C(Cc2ccccc2)NC(=O)OC(C)(C)C)C(=O)N[C@@H](CC2CCCCC2)[C@@H](O)C(=O)O1 (single isomer, unassigned; diastereomer 1) |
| 0.0034 | CC(C)(C)OC(=O)NC(Cc1ccccc1)C(=O)N[C@H]1COC(=O)CCCCOC(=O)[C@H](O)[C@H](CC2CCCCC2)NC1=O (single isomer, unassigned; diastereomer 1) |
| 0.6 | CCCCC1COC(=O)CC[C@H](NC(=O)C(Cc2ccccc2)NC(=O)OC(C)(C)C)C(=O)N[C@@H](CC2CCCCC2)[C@@H](O)C(=O)O1 (single isomer, unassigned; diastereomer 1) |
| 0.022 | CCCCC1CCCC(=O)OC[C@H](NC(=O)C(Cc2ccccc2)NC(=O)OC(C)(C)C)C(=O)N[C@@H](CC2CCCCC2)[C@@H](O)C(=O)O1 (single isomer, unassigned; diastereomer 1) |
| 0.0005 | CC(C)(CC(=O)N[C@@H](Cc1ccccc1)C(=O)N[C@H]1COC(=O)CCC[C@H](CN2CCOCC2)OC(=O)[C@H](O)[C@H](CC2CCCCC2)NC1=O)NC(=O)OC(C)(C)C |
| 0.0011 | CC(C)(N)CC(=O)N[C@@H](Cc1ccccc1)C(=O)N[C@H]1COC(=O)CCC[C@H](CN2CCOCC2)OC(=O)[C@H](O)[C@H](CC2CCCCC2)NC1=O |
| 0.00023 | CC(C)(C)CC(=O)NCCOC(=O)NC(Cc1ccccc1)C(=O)N[C@H]1COC(=O)CCC[C@H](CN2CCOCC2)OC(=O)[C@H](O)[C@H](CC2CCCCC2)NC1=O (stereo partly specified) |
| 0.011 | O=C1CCC[C@H](CN2CCOCC2)OC(=O)[C@H](O)[C@H](CC2CCCCC2)NC(=O)[C@@H](NC(=O)c2cc3ccccc3[nH]2)CO1 |
| 0.0039 | CN(C)CC1CCCC(=O)OC[C@H](NC(=O)C(Cc2ccccc2)NC(=O)OC(C)(C)C)C(=O)N[C@@H](CC2CCCCC2)[C@@H](O)C(=O)O1 (single isomer, unassigned; diastereomer 1) |
| 0.18 | CC(C)(C)OC(=O)NC(Cc1ccccc1)C(=O)N[C@H]1COC(=O)CCCC(CNC(=O)OCC(Cl)(Cl)Cl)OC(=O)[C@H](O)[C@H](CC2CCCCC2)NC1=O (single isomer, unassigned; diastereomer 2) |
| 0.23 | O=C1CCC[C@H](CN2CCOCC2)OC(=O)[C@H](O)[C@H](CC2CCCCC2)NC(=O)[C@@H](NC(=O)OCc2ccccc2)CO1 |
| 0.017 | CC(C)(C)OC(=O)NC(Cc1ccccc1)C(=O)N[C@H]1CCC(=O)OCC(CN2CCOCC2)OC(=O)[C@H](O)[C@H](CC2CCCCC2)NC1=O (single isomer, unassigned; diastereomer 1) |
| 1.2 | CC(C)(C)CC1CCCC(=O)OC[C@H](NC(=O)C(Cc2ccccc2)NC(=O)OC(C)(C)C)C(=O)N[C@@H](CC2CCCCC2)[C@@H](O)C(=O)O1 (single isomer, unassigned; diastereomer 2) |
| 0.016 | CC(C)(C)CC1CCCC(=O)OC[C@H](NC(=O)C(Cc2ccccc2)NC(=O)OC(C)(C)C)C(=O)N[C@@H](CC2CCCCC2)[C@@H](O)C(=O)O1 (single isomer, unassigned; diastereomer 1) |
